Reference: patent publication US20120021434A1, “METHOD FOR TREATING B CELL REGULATED AUTOIMMUNE DISORDERS” (Synta Pharmaceuticals Corp., priority 2005, published 2012)

Tests used:
Type in all cases: cell-based
ICSBP = ICSBP expression (Western blot)
Method: The 10% SDS Polyacrylamide gels (Inveitrogen) were transferred to Pure Nitrocellulose membrane (BioRed, Hercules, Calif.). The membranes were blocked with 5% milk in TBST buffer and incubated with anti-c-Rel, anti-p65, anti-p50, anti-ICSBP or anti-PU-1 antibody (all the antibodies were purchased from Santa Cruz) at a dilution of 1:500 for 1 h at room temperature or overnight at 4C. The membranes were washed and incubated with Horseradish Peroxidase-conjugated anti-rabbit IgG or anti-mouse IgG (Amersham, England) at a dilution of 1:2000 at room temperature for 1 h.
Of the transcription factors that have been analyzed, two factors, ICSBP and c-Rel, seem to be affected by Compound 4/Compound 50 treatment. ICSBP binds indirectly to the Ets-2 site. The primary NF-κB trans-activator for IL-12 is the c-Rel/p50 heterodimer. Other dimers (p65/p50 and p50/p50) either lack activity or have inhibitory functions. Thus, c-Rel plays a role in IL-12 transcription as a result of both activation through NF-κB and its interaction with ICSBP. […] The membranes were blocked with 5% milk in TBST buffer and then incubated with anti-c-Rel, anti-p65, anti-p50, anti-ICSBP or anti-PU-1 antibody (all the antibodies were purchased from Santa Cruz) at a dilution of 1:500 for 1 h at room temperature or overnight at 4° C. The membranes were washed and incubated with Horseradish Peroxidase-conjugated anti-rabbit IgG or anti-mouse IgG (Amersham, England) at a dilution of 1:2000 at room temperature for 1 h.
ICSBP, whose expression was reduced by Compound 50, was over-expressed using co-transfection with the IL-12 promoter-Luc report system. The over-expression construct of ICSBP was generated by PCR from cDNA of human PBMC using primers as follow: ICSBP-exp-F: 5′-[…]-3′ (SEQ ID NO:1) and ICSBP-exp-R: 5′-[…]-3′ (SEQ ID NO:2), the resulting PCR products was ligated to pCI vector (Promega).

c-Rel = target: T1, c-Rel (Mus musculus, UniProt P15307); assay: Immunofluorescence of c-Rel nuclear accumulation in LPS-stimulated RAW264.7 cells; details: 100 nM
T1 construct: nuclear extracts from RAW cells stimulated with LPS/IFNγ; endogenous in cells; host or cells: RAW264.7
T1 sequence (P15307 whole entry): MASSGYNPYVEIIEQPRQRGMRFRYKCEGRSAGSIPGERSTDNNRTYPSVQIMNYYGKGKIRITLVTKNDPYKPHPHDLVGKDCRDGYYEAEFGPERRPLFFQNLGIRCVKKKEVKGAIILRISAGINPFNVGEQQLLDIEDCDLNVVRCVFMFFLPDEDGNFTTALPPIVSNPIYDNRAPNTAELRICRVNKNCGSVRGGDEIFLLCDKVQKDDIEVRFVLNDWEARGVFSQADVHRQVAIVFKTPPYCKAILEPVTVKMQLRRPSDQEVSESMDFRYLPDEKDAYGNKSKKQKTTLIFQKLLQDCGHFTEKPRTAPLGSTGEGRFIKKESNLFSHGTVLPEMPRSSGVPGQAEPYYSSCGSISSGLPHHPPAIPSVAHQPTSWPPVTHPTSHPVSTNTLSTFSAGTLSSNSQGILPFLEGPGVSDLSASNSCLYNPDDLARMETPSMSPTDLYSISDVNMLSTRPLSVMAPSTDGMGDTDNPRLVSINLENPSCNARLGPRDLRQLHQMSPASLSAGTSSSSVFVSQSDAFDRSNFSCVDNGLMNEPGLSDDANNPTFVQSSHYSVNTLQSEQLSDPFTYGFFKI
Method: (§1) We next examined whether compound 50 can block the accumulation of c-Rel in the nucleus of cells induced by LPS (FIG. 2). RAW264.7 cells cultured in DMEM with 10% BCS were split and seeded into 4-well chambered slides at 80,000 cells/well density. The cells were then treated with DMSO, Compound 50 (100 nM), LPS (Sigma, 5 μg/mL), LPS (5 μg/mL)+Compound 50 (100 nM) for 4 hours and fixed with 3% paraformaldehyde solution (1×PBS) after 1× quick rinse with 1×PBS. Fixed cells were permeablized with 0.2% TX100 and immunostained with anti-cRel antibody (SC70, Santa Cruz, 1:200 dilution) or anti-NF-κB p65 antibody (SC109, Santa Cruz, 1:100 dilution), and subsequently stained with Alexa Fluor 488 Goat-anti-Rabbit secondary antibody and DAPI (Molecular Probes, 1.1 μM). Images were obtained with CoolSNAP monochrome CCD camera on a Nikon inverted microscope TE300 using identical imaging parameters and were processed identically with Photoshop CS software. As observed previously, c-Rel localized to the cytoplasm in DMSO-treated cells and to the nucleus in LPS-treated cells. […] We also examined whether Compound 50 blocks the nuclear accumulation of another NF-κB/Rel family member, p65, in LPS-stimulated RAW cells (FIG. 3). As observed for c-Rel, p65 was localized to the cytoplasm in DMSO and Compound 50-treated cells and to the nucleus in LPS-stimulated cells. […]

NF-κB p65 = assay: Immunofluorescence of p65 nuclear accumulation in LPS-stimulated RAW264.7 cells; details: RAW264.7, LPS 5 μg/mL, 100 nM, 4 hours
Method: as §1

IκBα = assay: Inducible degradation of IκBα (Western blot and FACS); details: IFN-γ/LPS or IFN-γ/SAC, 500 nM, 30 min and 2 hrs
Method: IκB degradation is one of the steps in the signaling pathway of NF-κB dependent genes. The activity of Compound 50 in inducible degradation of IκBα and IκBβ was investigated in THP-1 cells using Western blot and FACS analysis. […] Similar results were observed from the Compound 50 pre-treatment samples in which Compound 50 was added 30 min before stimulation.

Rel-B = Rel-B nuclear translocation in IFNγ+LPS-stimulated THP1 cells (immunoblot); details: 100 nM, 6 h
Method: RelB and p52 are two members of Rel family, which are preferentially complexed with each other. To determine the effect of Compound 50 on p52 and Rel-B nuclear translocation, THP1 cells were stimulated with IFNγ+LPS in either the presence or absence of 100 nM Compound 50 and the distribution of p52 and Rel-B was determined by immunoblotting of nuclear at 6 h post-treatment.

p65 = assay: LPS/IFNγ-induced phosphorylation of p65 in THP1 cells (immunoblot); details: THP1, 100 nM, residues Ser-276, Ser-468 and Ser-927
Method: (§2) In this study, we examined the effect of Compound 50 on LPS-induced phosphorylation of the NF-κB members p65 and p105/p50. THP1 monocytic cells were stimulated with IFNγ plus LPS in the presence or absence of 100 nM Compound 50 (30 min, 1 h and 3 h) and whole-cell extracts were immunoblotted using anti-phospho p65 and p105/p50 antibodies to detect the phosphorylated forms of these proteins. […] LPS/IFNγ induced phosphorylation of p65 as early as 30 minutes on residues Ser-276, Ser-468 and […]. Compound 50 had no effect on LPS/IFNγ induced phosphorylation at these sites. […] LPS/IFNγ induced phosphorylation of p105 as early as 30 minutes on residues Ser-927 and Ser-933. Compound 50 had no effect on LPS/IFNγ induced phosphorylation at these sites.

p105/p50 = assay: LPS/IFNγ-induced phosphorylation of p105/p50 in THP1 cells (immunoblot); details: THP1, 100 nM, residues Ser-927 and Ser-933
Method: as §2

p50 = assay: Nuclear p50 in PMA+ionomycin stimulated Jurkat T cells (immunoblot); details: 100 nM
IL-2 = assay: Induction of IL-2 in PMA+ionomycin stimulated Jurkat T cells; details: previously shown

With `Cc1cccc(/C=N/Nc2cc(N3CCOCC3)nc(OCCc3ccccn3)n2)c1` [Compound 50, N-(3-Methyl-benzylidene)-N′-[6-morpholin-4-yl-2-(2-pyridin-2-yl-ethoxy)-pyrimidin-4-yl]-hydrazine] the ICSBP expression (ICSBP) was “reduced”, the “transcription factor ICSBP affected by treatment” value (ICSBP; of the transcription factors analyzed) was “affected” and the “LPS-induced accumulation of c-Rel in the nucleus” value (c-Rel; RAW264.7, LPS 5 μg/mL, 4 hours) was “inhibited”. For the same compound, the “nuclear/cytoplasmic distribution of c-Rel” value (c-Rel; RAW264.7, absence of LPS, 4 h) was “did not alter”, the “LPS-induced p65 nuclear accumulation” value (NF-κB p65) was “not blocked” and the “amount of IκBα in the cytoplasm, with vs without compound” value (IκBα) was “no significant difference”. For the same compound, the “nuclear Rel-B” value (Rel-B) was “slightly increased”, the “LPS/IFNγ induced phosphorylation of p65” value (p65) was “no effect” and the “LPS/IFNγ induced phosphorylation of p105” value (p105/p50) was “no effect”. For the same compound, the “nuclear levels of p50” value (p50) was “slightly reduced” and the “induction of the c-Rel dependent cytokine IL-2” value (IL-2) was “impairs”.
